Assay results reported in patent US6384065B1, “Spiro compounds or salts thereof and preventives/remedies for autoimmune diseases and AP-1 inhibitors containing the same” (Toyama Chemical Co., Ltd., priority 1998, dated 2002).

Tests used:
[1] = tested on: type II collagen-induced arthritis; assay: Type II collagen-induced arthritis in mice (arthritis score, joint-bone destruction score); assay type: in vivo, DBA/1J mice; settings: 100 mg/kg orally once every day from day 21 to day 35, mean
Method: The compound of Example 20 (1) was tested for the effect on type II collagen-induced arthritis, using 8 weeks old, male DBA/1J mice (Japan Charles River). Emulsion was prepared by mixing an equal volume of bovine type II collagen (prepared by Koken) in 0.1N acetic acid (2 mg/ml) and Freund's complete adjuvant (prepared by Nacalai Tesque). Arthritis was induced by intradermal injection of 0.2 ml (the quantity of antigen: 200 μg/head) of the emulsion into the skin of the tail root twice (day 0 and day 21). The test compound was suspended in 0.5% solution of methyl cellulose, and 100 mg/kg was orally administered once every day from day 21 to day 35. […] Severity of the arthritis was scored 0: no change, 1: only one or two swelling of the joints or slight swelling of the ankle or toes, 2: swelling and/or rubor in further joints, 3: extensive swelling of whole paw, and the maximum possible score for arthritis was 12 points. As to the severity of destruction of joints and bones, X ray photographs of four paws were taken (Softex), and severity of destruction in the second to fifth articulationes interphalangeae, first to fifth articulationes metacarpophalangeae and metatarsophalangeae, and calcaneus was scored by 0 or 1 in accordance with presence or absence of destruction, and the severity of destruction in the carpus and tarsal was scored by 0 to 3. […]

[2] = tested on: transcription factor AP-1; assay: Luciferase assay (TPA-stimulated p(TRE)5TK-Luc reporter transfectant); assay type: cell-based; settings: Mus musculus, TPA stimulation 16 hours, Luc activity, read-out: Inhibition rate (%); for inhibition at 30 µg/mL: 30 μg/ml test compound; for inhibition at 100 µg/mL: 100 μg/ml test compound
Method: (§1) A reporter plasmid was prepared according to the method of R. I. Scheinman et al. [Mol. Cell. Biol., Vol. 15, Pages 943-953 (1995)]. That is, a plasmid p(TRE)5TK-Luc was constructed by connecting a promoter of thymidine kinase (TK) at an upstream site of luciferase (Luc) gene which is a reporter gene and a 5-times repeated TRE sequence at a further upstream site thereof. The plasmid was co-transfected simultaneously with p3′SS plasmid (prepared by Stratagene Co.) by the electrotranspolation method onto mouse 3T3 fibroblast (ATCC: CCL-163) cultured in a Dulbecco's modified Eagle's medium (DMEM) containing 10% fetal calf serum (FCS). Then the cells were cultured in DMEM containing 10% FCS and 100 μg/ml of Hygromycin B. Using the expression of Hygromycin-resistant gene contained in p3′SS as an indicator, cell strains of the transfectant into which the objective plasmid had been introduced stably were selected. Furthermore in the test mentioned below, cell strains showing expression of Luc gene under stimulation of 12-O-tetradecanoylphorbol 13-acetate (TPA, prepared by Sigma Co.) were used, and DMEM containing 10% FCS and 100 μg/ml of Hygromycin B was used for the culture of cells.
The cells prepared above were suspended in culture medium, and plated 96 well-plate at 1×10^4 cells/0.1 ml. After culturing it overnight, 50 μl of test compounds solution and 40 μl of culture medium were added, and incubated. After one hour 10 μl of 200 ng/ml TPA solution was added and the culture was continued for an additional 16 hours to stimulate the cells. The end of cluture, the cells were recovered, and cell lysis solutions were obtained. The Luc activity of the cell lysates was measured with a chemilluminescent detection kit (Pica Gene; manufactured by Toyo Ink Co.). The suppressive effect of each test compound could be assessed as a decrease of Luc activity, and the inhibition rate (%) was calculated according to the following formula:
Inhibition rate (%)=(1−Luc activity of cells to which the compound is added/Luc activity of cells to which the compound is not added)×100
(§2) The compounds of Example No. 1, 6(3), 6(5), 13, 15, 17, 18(1), 18(8), 20(1) and 20(2) were converted to sodium salts according to the method of Example 42, and then used for the assay.

mouse 3T3 fibroblast = assay: XTT assay (cytotoxicity test); assay type: cell-based; settings: 16 hours culture, T/C %
Method: as §1
The same culture plate as above was prepared, and test compound and TPA were added under the same conditions as above, after which a culture was carried out for 16 hours. The end of cluture, XTT reagent prepared according to the method of D. A. Scudievo [Cancer Res., Vol. 48, Pages 4827-4833 (1988)] was added and made to react for a prescribed period of time. Then, the amount of formazan formed by alive cells was analyzed by measuring absorbance at 450 nm using a micro plate reader. In this test, a decrease in absorbance is observed when the test compounds show a cytotoxicitic or a growth inhibitory activity. Cell viability (T/C %) was determined according to the following formula:
Cell Viability Rate (T/C %)=(Absorbance of well to which compound is added/Absorbance of well to which the compound was not added)×100
as §2

Structure (SMILES) | Joint-bone destruction score ([1]; X ray of four paws, control 20 ± 3) | Arthritis score ([1]; maximum score 12, control 10 ± 1) | inhibition at 30 µg/mL [2] | Cell viability (%) (mouse 3T3 fibroblast; 30 μg/ml test compound) | inhibition at 100 µg/mL [2] | Cell viability (%) (mouse 3T3 fibroblast; 100 μg/ml test compound)
CC(C)c1ccc(OC2CCC3(CC2)SC(C)(C)[C@H](C(=O)O)N3C(=O)c2ccccc2)cc1 (stereo partly drawn) [20 (1), (3S)-4-Benzoyl-8-(4-isopropylphenoxy)-2,2-dimethyl-1-thia-4-azaspiro[4.5]decane-3-carboxylic acid] | 14 ± 3 | 8 ± 1 | 72% | 98% |  | 
CC(C)c1ccc(OC2CCC3(CC2)SC(C)(C)[C@@H](C(=O)O)N3C(=O)c2ccccc2)cc1 (stereo partly drawn) [20 (2), (3R)-4-Benzoyl-8-(4-isopropylphenoxy)-2,2-dimethyl-1-thia-4-azaspiro[4.5]decane-3-carboxylic acid] |  |  |  |  | 93% | 92%
CC(C)c1ccc(OC2CCC3(CC2)SC[C@@H](C(=O)O)N3C(=O)c2cnc3ccccc3c2)cc1 (stereo partly drawn) [41 (2), (3R)-8-(4-Isopropylphenoxy)-4-(3-quinolylcarbonyl)-1-thia-4-azaspiro[4.5]decane-3-carboxylic acid] |  |  |  |  | 94% | 71%
Cc1nc(C(=O)N2[C@H](C(=O)O)CSC23CCC(Oc2ccc(C(C)C)cc2)CC3)cs1 (stereo partly drawn) [41 (3), (3R)-8-(4-Isopropylphenoxy)-4-[(2-methyl-1,3-thiazol-4-yl)carbonyl]-1-thia-4-azaspiro[4.5]decane-3-carboxylic acid] |  |  |  |  | 80% | 97%
CC(C)c1ccc(OC2CCC3(CC2)SC[C@@H](C(=O)O)N3C(=O)c2cnccn2)cc1 (stereo partly drawn) [41 (4), (3R)-8-(4-Isopropylphenoxy)-4-(2-pyrazinylcarbonyl)-1-thia-4-azaspiro[4.5]decane-3-carboxylic acid] |  |  |  |  | 96% | 82%
COc1ccc(C(=O)N2[C@H](C(=O)O)CSC23CCC(Oc2ccc(C(C)C)cc2)CC3)cc1 (stereo partly drawn) [41 (5), (3R)-8-(4-Isopropylphenoxy)-4-(4-methoxybenzoyl)-1-thia-4-azaspiro[4.5]decane-3-carboxylic acid] |  |  |  |  | 94% | 90%
CCN(CC)C(=O)c1ccc(C(=O)N2[C@H](C(=O)O)CSC23CCC(Oc2ccc(C(C)C)cc2)CC3)cc1 (stereo partly drawn) [41 (6), (3R)-4-{4-[(Diethylamino)carbonyl]benzoyl}-8-(4-isopropylphenoxy)-1-thia-4-azaspiro[4.5]decane-3-carboxylic acid] |  |  |  |  | 49% | 97%
CCOC(=O)[C@@H]1CSC2(CCC(Oc3ccc(C(C)C)cc3)CC2)N1C(=O)c1ccccc1 (stereo partly drawn) [Example 21, ethyl (3R)-4-benzoyl-8-(4-isopropylphenoxy)-1-thia-4-azaspiro[4.5]decane-3-carboxylate] |  |  | 28% | 74% |  | 
CC(C)c1ccc(OC2CCC3(CC2)SC[C@@H](C(=O)NCCC(=O)O)N3C(=O)c2ccccc2)cc1 (stereo partly drawn) [Example 29, 3-({[(3R)-4-benzoyl-8-(4-isopropylphenoxy)-1-thia-4-azaspiro[4.5]-decan-3-yl]carbonyl}amino)-propionic acid] |  |  |  |  | 92% | 110%
CC(C)c1ccc(OC2CCC3(CC2)SC[C@@H](C(=O)O)N3C(=O)c2ccc[nH]2)cc1 (stereo partly drawn) [Example 40, (3R)-8-(4-isopropylphenoxy)-4-(1H-2-pyrrolylcarbonyl)-1-thia-4-azaspiro[4.5]decane-3-carboxylic acid] |  |  |  |  | 91% | 108%
CC(C)CC=C1CCC2(CC1)SC(C)(C)[C@@H](C(=O)O)N2C(=O)CCC(C)C (stereo partly drawn) [Example 44, (3R)-2,2-dimethyl-8-(3-methylbutylidene)-4-(4-methylpentanoyl)-1-thia-4-azaspiro[4.5]decane-3-carboxylic acid] |  |  | 62% | 75% |  | 
CC(C)CC=C1CCC2(CC1)SC(CC(=O)OC(C)C)C(=O)N2CC(=O)O (centres unmarked) [Example 47, 2-[2-(2-isopropoxy-2-oxoethyl)-8-(3-methylbutylidene)-3-oxo-1-thia-4-azaspiro[4.5]decan-4-yl]-acetic acid] |  |  | 47% | 83% |  | 
